The target in assay [1] is Epidermal growth factor receptor (Homo sapiens, UniProt P00533). Kind of assay: Inhibition of wild type N-terminal His6-tagged human EGFR kinase domain (702 to 1016 residues) expressed in Sf9 cells pre-incubated for 30 mins before ATP and substrate addition by homogeneous time-resolved FRET assay.
Assay [2] deals with Epidermal growth factor receptor (Homo sapiens, UniProt P00533, L858R). Kind of assay: Inhibition of GST-tagged human recombinant EGFR catalytic domain (668 to 1210 amino acids) L858R mutant expressed in Sf9 cells pre-incubated for 30 mins before ATP and substrate addition by homogeneous time-resolved FRET assay.
Chain of Epidermal growth factor receptor (Homo sapiens, UniProt P00533, L858R) (P00533 25-1210 L858R limits assumed): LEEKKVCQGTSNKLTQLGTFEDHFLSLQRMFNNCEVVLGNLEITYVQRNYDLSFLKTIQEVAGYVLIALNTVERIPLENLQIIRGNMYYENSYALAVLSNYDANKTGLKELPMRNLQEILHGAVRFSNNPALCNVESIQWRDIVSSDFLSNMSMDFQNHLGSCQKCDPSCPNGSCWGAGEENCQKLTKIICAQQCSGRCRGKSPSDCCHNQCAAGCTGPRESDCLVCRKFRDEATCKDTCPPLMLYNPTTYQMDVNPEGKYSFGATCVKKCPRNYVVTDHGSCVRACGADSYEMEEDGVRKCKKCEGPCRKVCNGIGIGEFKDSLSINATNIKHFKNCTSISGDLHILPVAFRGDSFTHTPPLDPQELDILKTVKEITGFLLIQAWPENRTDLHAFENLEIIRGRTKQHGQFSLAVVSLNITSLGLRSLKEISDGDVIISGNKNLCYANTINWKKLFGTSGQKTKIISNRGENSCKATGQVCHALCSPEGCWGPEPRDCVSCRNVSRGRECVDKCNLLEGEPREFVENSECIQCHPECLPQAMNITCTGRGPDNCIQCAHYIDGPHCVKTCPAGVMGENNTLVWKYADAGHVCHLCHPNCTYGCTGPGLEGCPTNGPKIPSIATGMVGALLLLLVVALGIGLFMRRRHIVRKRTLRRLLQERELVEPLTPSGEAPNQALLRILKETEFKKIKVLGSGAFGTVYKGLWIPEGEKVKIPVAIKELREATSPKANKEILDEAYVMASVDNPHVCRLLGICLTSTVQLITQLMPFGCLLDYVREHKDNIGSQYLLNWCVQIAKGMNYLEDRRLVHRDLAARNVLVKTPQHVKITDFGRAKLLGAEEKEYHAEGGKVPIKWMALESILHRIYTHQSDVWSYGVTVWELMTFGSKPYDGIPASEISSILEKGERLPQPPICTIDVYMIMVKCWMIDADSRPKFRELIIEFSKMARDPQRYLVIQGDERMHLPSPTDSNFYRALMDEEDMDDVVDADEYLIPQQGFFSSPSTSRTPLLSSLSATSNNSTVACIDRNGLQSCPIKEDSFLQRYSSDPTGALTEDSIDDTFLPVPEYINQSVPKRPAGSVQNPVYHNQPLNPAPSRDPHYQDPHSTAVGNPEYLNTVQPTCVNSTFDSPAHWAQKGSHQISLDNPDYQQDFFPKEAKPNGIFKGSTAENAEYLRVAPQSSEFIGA
Assay [3] concerns the target Epidermal growth factor receptor (Homo sapiens, UniProt P00533, L858R/T790M). Kind of assay: Inhibition of GST-tagged human recombinant EGFR catalytic domain (668 to 1210 amino acids) T790M/L858R mutant expressed in Sf9 cells pre-incubated for 30 mins before ATP and substrate addition by homogeneous time-resolved FRET assay.
The target of assay [4] is Proto-oncogene tyrosine-protein kinase Src (Homo sapiens) (UniProt P12931). Put plainly: Induction of covalent modification of wild type c-Src kinase domain (251 to 533 residues) (unknown origin) at 100 uM incubated for 1 hr by mass spectrometry method.
In assay [5] the test system is Proto-oncogene tyrosine-protein kinase Src (Homo sapiens), P12931 [T341M,S348C]. Put plainly: Induction of covalent modification of c-Src kinase domain (251 to 533 residues) T338M/S345C mutant (unknown origin) assessed as protein mass increase at 100 uM incubated for 1 hr by mass spectrometry method.
Assay [6] has the same test system. Kind of assay: Induction of covalent modification of c-Src kinase domain (251 to 533 residues) T338M/S345C mutant (unknown origin) at 100 uM incubated for 1 hr by mass spectrometry method.

Structures are written as SMILES. The source made the active and inactive calls. The calls are words filed in the database; no cut-off is given here.

This passage reports IC50 and Activity results from ChEMBL document CHEMBL3425413, “Structure-based design and synthesis of covalent-reversible inhibitors to overcome drug resistance in EGFR” (Bioorg Med Chem, 2015).

Chain of Epidermal growth factor receptor (Homo sapiens, UniProt P00533) (P00533 whole entry, the tested form may be a part): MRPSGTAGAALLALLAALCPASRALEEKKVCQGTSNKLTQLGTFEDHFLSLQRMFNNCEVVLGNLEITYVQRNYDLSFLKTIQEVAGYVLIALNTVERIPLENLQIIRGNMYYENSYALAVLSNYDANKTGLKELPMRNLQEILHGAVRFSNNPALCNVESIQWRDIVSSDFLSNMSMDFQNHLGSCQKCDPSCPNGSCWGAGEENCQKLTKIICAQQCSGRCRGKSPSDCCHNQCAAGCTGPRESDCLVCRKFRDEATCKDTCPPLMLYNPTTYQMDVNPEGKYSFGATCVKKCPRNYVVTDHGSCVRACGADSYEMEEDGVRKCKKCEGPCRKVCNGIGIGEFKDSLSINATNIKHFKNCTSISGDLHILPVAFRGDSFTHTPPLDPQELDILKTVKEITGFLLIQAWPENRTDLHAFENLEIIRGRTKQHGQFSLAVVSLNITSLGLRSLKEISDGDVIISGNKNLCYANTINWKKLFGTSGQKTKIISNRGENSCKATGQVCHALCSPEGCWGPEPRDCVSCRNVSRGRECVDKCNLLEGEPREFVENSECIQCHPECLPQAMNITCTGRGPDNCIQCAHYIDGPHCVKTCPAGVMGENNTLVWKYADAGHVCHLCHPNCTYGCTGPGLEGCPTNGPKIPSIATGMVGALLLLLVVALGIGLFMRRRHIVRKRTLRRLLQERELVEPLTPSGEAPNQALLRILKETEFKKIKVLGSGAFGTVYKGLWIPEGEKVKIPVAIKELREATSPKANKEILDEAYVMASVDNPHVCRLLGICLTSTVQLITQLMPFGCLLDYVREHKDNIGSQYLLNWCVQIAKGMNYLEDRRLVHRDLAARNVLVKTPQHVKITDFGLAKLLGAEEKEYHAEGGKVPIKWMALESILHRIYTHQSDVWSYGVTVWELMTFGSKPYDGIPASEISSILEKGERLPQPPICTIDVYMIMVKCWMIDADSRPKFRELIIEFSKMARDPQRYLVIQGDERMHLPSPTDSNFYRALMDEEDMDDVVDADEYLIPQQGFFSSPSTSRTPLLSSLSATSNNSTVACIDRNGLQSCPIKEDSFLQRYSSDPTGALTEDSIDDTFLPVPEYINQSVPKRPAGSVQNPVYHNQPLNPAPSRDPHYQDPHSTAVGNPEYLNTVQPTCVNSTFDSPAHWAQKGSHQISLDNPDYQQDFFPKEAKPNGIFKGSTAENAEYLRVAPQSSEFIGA
Chain of Epidermal growth factor receptor (Homo sapiens, UniProt P00533, L858R/T790M) (P00533 25-1210 T790M/L858R limits assumed): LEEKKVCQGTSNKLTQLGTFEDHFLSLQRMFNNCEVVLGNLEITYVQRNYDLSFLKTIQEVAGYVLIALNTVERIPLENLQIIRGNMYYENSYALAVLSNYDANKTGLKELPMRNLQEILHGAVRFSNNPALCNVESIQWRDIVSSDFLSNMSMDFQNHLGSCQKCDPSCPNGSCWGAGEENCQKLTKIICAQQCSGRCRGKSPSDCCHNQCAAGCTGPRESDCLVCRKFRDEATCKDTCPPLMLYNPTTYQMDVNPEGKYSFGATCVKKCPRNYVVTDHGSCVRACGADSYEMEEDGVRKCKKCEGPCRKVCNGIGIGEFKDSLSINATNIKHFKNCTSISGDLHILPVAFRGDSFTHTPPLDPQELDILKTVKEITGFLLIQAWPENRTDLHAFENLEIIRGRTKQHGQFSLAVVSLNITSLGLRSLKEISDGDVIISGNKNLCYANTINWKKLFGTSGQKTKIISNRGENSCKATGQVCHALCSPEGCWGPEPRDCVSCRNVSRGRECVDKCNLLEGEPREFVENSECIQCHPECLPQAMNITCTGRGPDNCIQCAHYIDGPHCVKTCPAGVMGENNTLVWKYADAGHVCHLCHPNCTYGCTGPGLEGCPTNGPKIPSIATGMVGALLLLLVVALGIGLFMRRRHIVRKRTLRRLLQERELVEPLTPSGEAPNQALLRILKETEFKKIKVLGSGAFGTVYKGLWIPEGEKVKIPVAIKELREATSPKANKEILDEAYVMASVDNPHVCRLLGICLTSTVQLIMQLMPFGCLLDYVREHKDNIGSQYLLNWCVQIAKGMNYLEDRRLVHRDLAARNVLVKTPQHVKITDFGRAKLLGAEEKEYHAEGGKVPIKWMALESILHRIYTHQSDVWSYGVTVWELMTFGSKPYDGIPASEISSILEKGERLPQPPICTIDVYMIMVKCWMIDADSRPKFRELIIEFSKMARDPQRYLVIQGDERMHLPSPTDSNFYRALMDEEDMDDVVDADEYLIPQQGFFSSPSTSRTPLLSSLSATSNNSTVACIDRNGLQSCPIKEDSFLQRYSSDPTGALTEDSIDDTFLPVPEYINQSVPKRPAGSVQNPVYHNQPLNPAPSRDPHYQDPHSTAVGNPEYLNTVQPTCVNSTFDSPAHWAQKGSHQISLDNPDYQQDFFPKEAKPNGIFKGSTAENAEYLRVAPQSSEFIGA

On to `COc1cc(N2CCN(C)CC2)ccc1Nc1ncc(Cl)c(Oc2cccc(NC(C)=O)c2)n1`, for which the IC50 – broadly, the concentration at which inhibition is half-maximal – in assay [1] was greater than 10000 nM; in assay [2] it was 490 nM; in assay [3] it was 180 nM.

`COc1cc(N2CCN(C)CC2)ccc1Nc1ncc(Cl)c(Oc2cccc(NC(=O)/C(C#N)=C/C3CCCC3)c2)n1`: the IC50 in assay [1] was greater than 10000 nM; in assay [2], 2200 nM; in assay [3] it was 1200 nM.

Regarding `COc1cc(N2CCN(C)CC2)ccc1Nc1ncc(Cl)c(Oc2cccc(NC(=O)/C(C#N)=C/c3ccco3)c2)n1`, the IC50 in assay [1] is greater than 10000 nM; in assay [2] it was 1300 nM; in assay [3], 330 nM.

For the compound `COc1cc(N2CCN(C)CC2)ccc1Nc1ncc(Cl)c(Oc2cccc(NC(=O)/C(=C/c3ccc(N(C)C)cc3)C(F)(F)F)c2)n1`, the results for the IC50 in assay [1], in assay [2] and in assay [3] were greater than 10000 nM, 6300 nM and 2200 nM, respectively.

With `COc1cc(N2CCN(C)CC2)ccc1Nc1ncc(Cl)c(Oc2cccc(NC(=O)/C(C#N)=C/c3ccc(C#N)cc3)c2)n1`, the figures for the IC50 in assay [1], in assay [2] and in assay [3] were greater than 10000 nM, 1800 nM and 940 nM, respectively.

As for `COc1cc(N2CCN(C)CC2)ccc1Nc1ncc(Cl)c(Oc2cccc(NC(=O)/C(C#N)=C/C3CC3)c2)n1`, in assay [4], the outcome was Active. For the same compound, the Activity in assay [5] stood at 560 Da.

On to `COc1cc(N2CCN(C)CC2)ccc1Nc1ncc(Cl)c(Oc2cccc(NC(=O)/C(C#N)=C/c3cccc([N+](=O)[O-])c3)c2)n1`, for which the IC50 in assay [1] was greater than 10000 nM; in assay [2], 1800 nM; in assay [3] it was 720 nM.

Regarding `COc1cc(N2CCN(C)CC2)ccc1Nc1ncc(Cl)c(Oc2cccc(NC(=O)/C(C#N)=C/c3ccc(N(C)C)cc3)c2)n1`, the IC50 in assay [1], in assay [2] and in assay [3] was greater than 10000 nM in each case.

For `COc1cc(N2CCN(C)CC2)ccc1Nc1ncc(Cl)c(Oc2cccc(NC(=O)/C(C#N)=C/c3ccncc3)c2)n1`, the IC50 stood at 8700 nM in assay [1], 150 nM in assay [2] and 37 nM in assay [3].

Regarding `COc1cc(N2CCN(C)CC2)ccc1Nc1ncc(Cl)c(Oc2cccc(NC(=O)/C(C#N)=C/c3ccc([N+](=O)[O-])cc3)c2)n1`, the values for the IC50 in assay [1], in assay [2] and in assay [3] were greater than 10000 nM, 2300 nM and 1200 nM, respectively.

As to `COc1cc(N2CCN(C)CC2)ccc1Nc1ncc(Cl)c(Oc2cccc(NC(=O)/C(C#N)=C/C(C)(C)C)c2)n1`, the results for the IC50 in assay [1], in assay [2] and in assay [3] were greater than 10000 nM, 1300 nM and 400 nM, respectively.

Regarding `COc1cc(N2CCN(C)CC2)ccc1Nc1ncc(Cl)c(Oc2cccc(NC(=O)/C=C/C3CC3)c2)n1`, the concentration for half-maximal inhibition (IC50) worked out at 5600 nM in assay [1], 2800 nM in assay [2] and 830 nM in assay [3]. For the same compound, in assay [5], the Activity is 537 Da.

Regarding `COc1cc(N2CCN(C)CC2)ccc1Nc1ncc(Cl)c(Oc2cccc(NC(=O)/C(=C/c3ccc(F)cc3)C(F)(F)F)c2)n1`, the IC50 is greater than 10000 nM in assay [1], greater than 10000 nM in assay [2] and 6300 nM in assay [3].

As for `COc1cc(N2CCN(C)CC2)ccc1Nc1ncc(Cl)c(Oc2cccc(NC(=O)CCC3CC3)c2)n1`, the IC50 in assay [1] was greater than 10000 nM; in assay [2] it was 2000 nM; in assay [3], 770 nM. Further, the result in assay [6] and in assay [4] was inactive.

As to `COc1cc(N2CCN(C)CC2)ccc1Nc1ncc(Cl)c(Oc2cccc(NC(=O)/C(C#N)=C/c3ccc(F)cc3)c2)n1`, the IC50 in assay [1] was found to be 7000 nM; in assay [2], 540 nM; in assay [3], 120 nM.

With `COc1cc(N2CCN(C)CC2)ccc1Nc1ncc(Cl)c(Oc2cccc(NC(=O)/C(C#N)=C/C(C)C)c2)n1`, the IC50 in assay [1] was greater than 10000 nM; in assay [2], 1200 nM; in assay [3], 800 nM.

Take `COc1cc(N2CCN(C)CC2)ccc1Nc1ncc(Cl)c(Oc2cccc(NC(=O)/C(C#N)=C/c3ccc(SC)cc3)c2)n1`: the figures for the IC50 in assay [1], in assay [2] and in assay [3] were 4800 nM, 830 nM and 510 nM, respectively.
